Data as given in patent US8247444B2, “Anti-tumor effect of dimeric phthalide compound” (priority 2007, dated 2012).
Values after ≈ are worked out from the molar mass of the structure shown.

Tests used:
K562 = assay: Growth inhibition of sensitive and drug-resistant cell lines (IC50), K562; type: cell-based; conditions: Homo sapiens; K562 cells
Method: (§1) The human lung cancer cell H1299 and H446, glioma cell U251 and U87MG, and human hepatic cellular cancer Bel-7402 cell in logarithmic growth phase were digested with pancreatic enzyme, and then suspended into DMEM or RPMI1640 containing 10% fetal bovine serum. The leukemic cells Kasumi-1 need no digestion, and were suspended into RPMI1640 containing 10% fetal bovine serum directly after centrifugalization. The cell density was adjusted to 1×10^4 cells/ml through cell counting, and the cell suspensions were seeded into a 96-well plate respectively, 100 μl/well, totally 6 groups of cells. The adherent cells were cultured overnight, the suspended cells were added different concentration gradients of dimeric phthalide compounds (S1-S6) directly, n=6 for each concentration of a single agent. The final volume was 200 ul, and the balance was supplemented with the culture medium. The plate was then incubated for 68 hours in 37° C., saturated humidity, 5% CO2 cell incubator. The medium was aspirated and 72 μl/well fresh culture medium was added. 8 μl […] (CCK-8) was added into each well and cultured for 2 hours. The absorbance was measured at 450 nm. The results were calculated as the 50% inhibiting drug concentration, i.e. IC50, using Sigmoidal simulation function by software Origin 7.0.
(§2) The cancer cells (various cell lines as shown in table 1 or FIG. 3) were seeded 1×10^3 cells per well into a 96-well plate. The suspended cells were added different concentration of dimeric phthalide compounds (S1-S6) directly, and the adherent cells were cultured overnight and added different concentration of dimeric phthalide compounds (S1-S6). The different concentration of dimeric phthalide compounds were divided into 10 groups: 0, 0.1, 0.5, 1, 5, 10, 20, 40, 80, 160 μg/ml, n=6 for each concentration.
(§3) According to the method described in Example 2, […] was detected and IC50 was calculated. The experiment was repeated for 3 times.
(§4) The growth inhibition effects of dimers of S1-S6 on its sensitive cell lines as well as the drug-resistant sub-strains (IC50 (μg/ml)) were shown in table 1 and FIG. 3.

K562/Adr = assay: Growth inhibition of sensitive and drug-resistant cell lines (IC50), K562/Adr; type: cell-based; conditions: Homo sapiens; K562/Adr drug-resistant cells
Excerpt: (§5) HL-60/ADR, MCF-7/ADR, K562/ADR, Bel-7402/5-FU, KBV200, SMMC-7721/Adr were respectively chemotherapeutics Adriamycin (ADR), 5-Fluorouracil (5-FU) or vincristine (VCR) drug-resistant sub-stains of HL-60, MCF-7, K562, Bel-7402, KB, SMMC-7721 cells (all from Chinese Academy of Medical Sciences). NB4-R2 was all trans-retinoic acid (ATRA) drug-resistant sub-stain (from Pathophysiology Research Department of Shanghai JiaoTong University). The main drug-resistance mechanism of K562/ADR was high expression of P-glycoprotein (P-gp), along with increased expression of Bcl-2. In addition to high expression of P-gp, the drug-resistance mechanism of MCF-7/ADR also related to the high expression of Breast Cancer Resistant Protein (BCRP). The main drug-resistance mechanism of HL-60/ADR was high expression of Multidrug Resistance Protein 1 (MRP1), along with high expression of Bcl-2, Bcl-xL. […] The main drug-resistance mechanism of KBV200 was high expression of P-gp and its increased activity. The drug-resistance mechanism of NB4-R2 on ATRA was mutation in the RAR gene locus.
as §1, §2, §3, §4

KB [1] = assay: Growth inhibition of sensitive and drug-resistant cell lines (IC50), KB; type: cell-based; conditions: Homo sapiens; KB cells, Table 1
Method: (§6) In the following Examples, the cell lines used were H1299, H446 (human lung cancer cell line), KB (human oral cavity carcinoma cell line), NB4, HL-60 (human leukemic cell line), U251 ? U87MG (human glioblastoma cell line), MCF-7 (human breast carcinoma cell line), Bel-7402 and SMMC7721 (human hepatic cellular cancer cell line), SW620 (human colon carcinoma cell line), HDF (human dermis fibroblast), HUVEC (human umbilical vein endothelial cell line) and Kasumi-1 (human acute myeloid leukaemia cell line), all from American Type Culture Collection (ATCC).
as §1, §2, §3, §4

KBv200 = assay: Growth inhibition of sensitive and drug-resistant cell lines (IC50), KBv200; type: cell-based; conditions: Homo sapiens; KBv200 drug-resistant cells
Excerpt: as §5, §1, §2, §3, §4

MCF-7 = assay: Growth inhibition of sensitive and drug-resistant cell lines (IC50), MCF-7; type: cell-based; conditions: Homo sapiens, MCF7; MCF-7 cells
Method: as §6, §1, §2, §3, §4

MCF-7/Adr = assay: Growth inhibition of sensitive and drug-resistant cell lines (IC50), MCF-7/Adr; type: cell-based; conditions: Homo sapiens, NCI/ADR-RES; MCF-7/Adr drug-resistant cells
Excerpt: as §5, §1, §2, §3, §4

Bel-7402 [2] = assay: Growth inhibition of sensitive and drug-resistant cell lines (IC50), Bel-7402; type: cell-based; conditions: Homo sapiens; Bel-7402 cells, Table 1
Method: as §6, §1, §2, §3, §4

Bel-7402/5-Fu = assay: Growth inhibition of sensitive and drug-resistant cell lines (IC50), Bel-7402/5-Fu; type: cell-based; conditions: Homo sapiens, Bel7402/5-FU; Bel-7402/5-Fu drug-resistant cells
Excerpt: as §5, §1, §2, §3, §4

SMMC-7721 = assay: Growth inhibition of sensitive and drug-resistant cell lines (IC50), SMMC-7721; type: cell-based; conditions: Homo sapiens; SMMC-7721 cells
Method: as §6, §1, §2, §3, §4

SMMC-7721/Adr = assay: Growth inhibition of sensitive and drug-resistant cell lines (IC50), SMMC-7721/Adr; type: cell-based; conditions: Homo sapiens; SMMC-7721/Adr drug-resistant cells
Excerpt: as §5, §1, §2, §3, §4

HUVEC = assay: Vascular endothelial cell inhibition assay (CCK-8), HUVEC; type: cell-based; conditions: Homo sapiens, 72 h
Method: (§7) 2×10^3 cells were seeded into a 96-well plate and cultured for 24 h. S1-S6 of different concentrations (0, 0.01, 0.1, 0.5, 1, 2.5, 5, 10, 20, 40, 80, 160 μg/ml, respectively) were added and incubated for 72 h, n=6 for each concentration. The inhibition of cell proliferation was detected by CCK-8 assay, the results were calculated as IC50, as describe in Example 3.

HDF = assay: Vascular endothelial cell inhibition assay (CCK-8), HDF; type: cell-based; conditions: Homo sapiens, 72 h
Method: as §7

KB [3] = assay: Vascular endothelial cell inhibition assay (CCK-8), KB; type: cell-based; conditions: Homo sapiens, 72 h, CCK-8, Table 2
Method: as §7

Bel-7402 [4] = assay: Vascular endothelial cell inhibition assay (CCK-8), Bel-7402; type: cell-based; conditions: Homo sapiens, 72 h, CCK-8, Table 2
Method: as §7

[5] = test system: secretion of VEGF in H1299 cell; assay: VEGF in supernatant of tumor cell H1299 culture (VEGF-ELISA); type: cell-based, human; conditions: H1299, compound 5 μg/ml, 24 h; for inhibition at 5 µg/mL: Homo sapiens, NCI-H1299, read-out: Inhibition rate of VEGF secretion
Method: Assay of vascular endothelial cell growth factor (VEGF) in supernatant of tumor cell H1299 culture. The cell was seeded into a 24-well plate (n=3 for each sample). H1299 cell was treated with S1-S6 respectively and cultured for 24 h. The culture supernatants from each group were collected and operated according to the instruction of VEGF-ELISA kit (JIN MEI Corporation). The samples were added, incubated, washed and detected at 450 nm for OD values of each sample. The standard curve was obtained by using different dose of VEGF standards and the secretory volume of VEGF in the supernatant was calculated.

[6] = test system: U87MG, H1299 and HL-60 heterograft tumors; assay: Inhibition of the growth of nude mouse heterograft tumors; type: in vivo, Balb/c male nude mice; conditions: FIG. 9
Method: Experimental grouping: Balb/c male nude mice were used, each weighted 18-22 g, and three assays were performed. The mice were seeded with U87MG, H1299 and HL-60 respectively. The animals were divided into three groups for each experiment, one as control, one was administered with the dimeric phthalide compounds, and one was administered with monomers of phthalide compound, 6 animals for each group.
For the group which was administered with monomers of phthalide compound, we used n-butylidenephthalide (BP) (Sigma) as active ingredient for tumor suppression, the compound had the structure as follows:
Experimental Process The H1299, HL-60 or U87MG cells growing in logarithmic phase were used. […] When the tumors had gown into 0.1-0.5 cm^3 (about 7-10 days), the animals were intraperitoneal injected with the dimeric phthalide compound S4 (25 mg/kg), S6 (30 mg/kg), S1 (32 mg/kg), each 200 μl; for the group of monomers of phthalide compound, the mice were intraperitoneal injected with n-butylidenephthalide (250 mg/kg); the control group was administered with equal volume of vehicle. The animals were sacrificed after 4 weeks, and the subcutaneous tumors were separated. Photographs were taken (FIG. 9A) and the tumors were weighted (FIG. 9B).

Work on `CCC/C=C1\OC(=O)C2=C1CCC1[C@H]2C23C=CCC[C@@H]2C1(C(=O)CCC)OC3=O` (single isomer, unassigned) [S3] yielded an IC50 (K562) of 17.4 ± 2.06 µg/mL (≈ 44 µM), an IC50 (K562/Adr) of 19.2 ± 1.71 µg/mL (≈ 48.3 µM) and an IC50 (KB [1]) of 19 ± 1.91 µg/mL (≈ 48 µM). The IC50 (KBv200) was 20.4 ± 2.6 µg/mL (≈ 51.6 µM), the IC50 (MCF-7) was 32.1 ± 3.21 µg/mL (≈ 81 µM) and the IC50 (MCF-7/Adr) was 34 ± 3.06 µg/mL (≈ 85.7 µM). It also gave an IC50 (Bel-7402 [2]) of 28.1 ± 3.96 µg/mL (≈ 70.9 µM), an IC50 (Bel-7402/5-Fu) of 29.3 ± 2.3 µg/mL (≈ 74 µM) and an IC50 (SMMC-7721) of 25.4 ± 2 µg/mL (≈ 64.1 µM). It also gave an IC50 (SMMC-7721/Adr) of 26.7 ± 2.6 µg/mL (≈ 67.3 µM), an IC50 (HUVEC) of 5.99 µg/mL (≈ 15.1 µM) and an IC50 (HDF) of 98.7 µg/mL (≈ 249 µM). The IC50 (KB [3]) was 18.9 µg/mL (≈ 47.7 µM), the IC50 (Bel-7402 [4]) was 44.3 µg/mL (≈ 112 µM) and the “Supernatant VEGF” value [5] was 268.7 ± 36.13 ng/ml/10^6 cells. It also gave an inhibition at 5 µg/mL [5] of 28%.
For `CCC/C=C1\OC(=O)c2ccccc21` [BP, n-butylidenephthalide, reference compound], the “dose needed to reach similar effects compared with the dimeric phthalide compound” value [6] was ≥ 10 folds and the tumor inhibition effect ([6]; intraperitoneal, S4 25 mg/kg, S6 30 mg/kg, S1 32 mg/kg, BP 250 mg/kg, 4 weeks) was “some inhibition effects”.
In the case of `CCC/C=C1\OC(=O)C2=C1CCC1C2C2(OC(=O)c3ccccc32)[C@@H]1CCC` (stereo partly shown) [S2], the IC50 (K562) is reported as 18.4 ± 1.02 µg/mL (≈ 48.7 µM), the IC50 (K562/Adr) is reported as 20.4 ± 1.53 µg/mL (≈ 54 µM) and the IC50 (KB [1]) is reported as 15.8 ± 1.25 µg/mL (≈ 41.7 µM). It also gave an IC50 (KBv200) of 16.4 ± 1.98 µg/mL (≈ 43.2 µM), an IC50 (MCF-7) of 25.6 ± 2.01 µg/mL (≈ 67.7 µM) and an IC50 (MCF-7/Adr) of 29.4 ± 2.8 µg/mL (≈ 77.8 µM). For the same compound, the IC50 (Bel-7402 [2]) was 27.9 ± 2.54 µg/mL (≈ 73.6 µM), the IC50 (Bel-7402/5-Fu) was 29.7 ± 1.99 µg/mL (≈ 78.4 µM) and the IC50 (SMMC-7721) was 37.9 ± 2 µg/mL (≈ 100 µM). For the same compound, the IC50 (SMMC-7721/Adr) was 38.3 ± 1.87 µg/mL (≈ 101 µM), the IC50 (HUVEC) was 4.76 µg/mL (≈ 12.6 µM) and the IC50 (HDF) was 83.2 µg/mL (≈ 220 µM). The IC50 (KB [3]) was 37.8 µg/mL (≈ 99.9 µM), the IC50 (Bel-7402 [4]) was 25.6 µg/mL (≈ 67.7 µM) and the “Supernatant VEGF” value [5] was 245.71 ± 34.27 ng/ml/10^6 cells. The inhibition at 5 µg/mL [5] was 34.2%.
